Tests used:
mu opioid receptor = biological target: T1, mu opioid receptor (Rattus norvegicus, UniProt P33535); assay: Rat brain mu opioid receptor binding assay ([3H]DAMGO); conditions: rat forebrain membranes, 25° C.
T1 construct: from tissue; host or cells: rat forebrain membrane (particulate) preparation
Description: Rat Brain Mu and Delta Opioid Receptor Binding Assay
Male, Wistar rats (150-250 g, VAF, Charles River, Kingston, N.Y.) were killed by cervical dislocation and their brains removed and placed immediately in ice cold Tris HCl buffer (50 mM, pH 7.4). The forebrains were separated from the remainder of the brain by a coronal transection, beginning dorsally at the colliculi and passing ventrally through the midbrain-pontine junction. After dissection, the forebrains were homogenized in Tris buffer in a Teflon®-glass homogenizer. The homogenate was diluted to a concentration of 1 g of forebrain tissue per 100 mL Tris buffer and centrifuged at 39,000×G for 10 min. The pellet was resuspended in the same volume of Tris buffer with several brief pulses from a Polytron homogenizer. This particulate preparation was used for the opioid receptor binding assays. Following incubation with the mu opioid selective peptide ligand [^3H]DAMGO or the delta opioid selective ligand [^3H]DPDPE at 25° C., the tube contents were filtered through Whatman GF/B filter sheets on a Brandel cell harvester. The tubes and filters were rinsed three times with 4 mL of 10 mM HEPES (pH 7.4) and the radioactivity associated with the filter circles determined using Formula 989 scintillation fluid (New England Nuclear, Boston, Mass.) in a scintillation counter.
The data were used to calculate a Ki value, using GraphPad Prism.

male Sprague-Dawley rats = assay: Rat CFA radiant heat model of inflammatory pain; assay type: in vivo; conditions: dosed orally 24 h after intraplantar CFA
Description: Rat CFA Radiant Heat Model of Inflammatory Pain
Intraplantar injection of Complete Freund's Adjuvant (CFA) in rodents results in a strong, long-lasting inflammatory reaction, characterized by a chronic and pronounced hyperalgesia to both thermal and mechanical stimuli. These effects peak between 24-72 h following injection, and can last for several days to a few weeks. To assess the ability of compounds to reverse thermal hyperalgesia, male Sprague-Dawley rats (200-350 g) were given an intraplantar injection of CFA (1:1 CFA:saline, 100 μL) into their left hindpaw. Following a 24-h incubation period, response latencies on the Radiant Heat Paw Stimulator (RH) were obtained and compared to baseline (pre-CFA) latencies. The RH device automatically registered lifting of the paw from the surface of the glass. […] Following the post CFA latency assessment, rats were dosed orally (2.5 mL/kg) with test compound or vehicle (hydroxypropylmethylcellulose, HPMC). Percent reversal of hyperalgesia was calculated for each animal as (Treatment Response−postCFA Response)/(preCFA Response−postCFA Response)×100. Therefore, a return to normal pre-CFA thresholds was defined as 100% efficacy, whereas no change from post-CFA thresholds was 0% efficacy. Average % reversal of hyperalgesia was then calculated for each treatment group (n=6-8 rats/group). […]

Male Sprague Dawley rats = assay: Spinal nerve ligation (SNL) model of neuropathic pain, mechanical allodynia (Von Frey); assay type: in vivo; conditions: rat, at 2 h
Description: Spinal Nerve Ligation (SNL) Model of Neuropathic Pain
Male Sprague Dawley rats weighing 145 to 165 g (approximately 6 weeks of age) were obtained from Harlan (Indianapolis, Ind.). Food and water were provided ad lib and a 12 h light and 12 h dark cycle were maintained. Animals were group housed under specific pathogen-free, barrier maintained environment and were allowed to acclimate for no less than 1 week. Following surgery, animals were housed individually in solid bottom polycarbonate cages with automatic watering devices at 22° C. and a relative humidity of 60%. All animals received Harland Tekland Diet # 8604.
Anesthesia was induced using isoflurane (IsoVet™) inhalant in an induction chamber (3-5% in 2 L/min of O2). Once recumbent, the animal was removed and placed into a nose cone which delivered inhalant isoflurane (0.5-2.5% at 2 L/min Of O2). The dorsal pelvic area was shaved and scrubbed aseptically with chlorhexidine scrub, 70% alcohol, and a 5% chlorhexidine solution. The animal was held in ventral recumbency on a heating pad, and the surgical procedure described by Kim and Chung (1992) was performed. The left paraspinal muscles were separated from the spinous processes at the level of Lumbar 4 to Sacral 2 (L4-S2). Once the musculature was retracted, the L6 transverse process was removed using a small rongeur. L4 and L5 spinal nerves could then be visualized. L5 was then isolated and ligated using 6-0 silk suture material. Warm saline and a dose of long-acting antibiotic was administered immediately post-op before recovery form anesthesia.
At least one week following surgery, animals were individually placed in a Lucite testing chamber with a wire mesh bottom. Mechanical (tactile) allodynia was measured by recording the pressure at which the affected paw was withdrawn from graded stimuli (Von Frey hairs ranging from 4.0 to 148.1 mN equivalent to 0.25 to 15 g of pressure) applied to the plantar surface of the paw (between the footpads) according to the procedure of Chaplan et. al (1994) in order to calculate paw withdrawal threshold (PWT). Normal rats can withstand at least 15 g of pressure without responding. SNL rats can respond to as little as 0.25 g of pressure. Rats were included in this study only if their PWT was below 4.0 g.
Animals were used for compound testing between 2 weeks and 8 weeks post-operatively. Animals were always pre-tested for baseline withdrawal threshold on the day of testing. Following a 16 h fast, PWT was evaluated at 30 min, 1 h, 2 h, and 4 h post-dosing. Dose-response studies were conducted at the time of peak effect. Studies were conducted in a blinded manner.
Data were normalized and results were presented as % MPE (maximum possible effect) of the drug.

[1] = Metabolic stability in mouse liver microsomes; assay type: in vitro ADME; conditions: 10 min incubation
Description: (§1) The metabolic stability of Compound 3 was investigated using several approaches. The compound was incubated with liver microsomes from mouse, rat, dog and human and the percent of compound remaining after ten min quantified. The compound was metabolically robust in all species tested.

[2] = Metabolic stability in dog liver microsomes; assay type: in vitro ADME; conditions: 10 min incubation
Description: as §1

[3] = biological target: recombinant human P450 3A4 (Homo sapiens, UniProt P08684); assay: Recombinant human P450 isoform inhibition, 3A4; assay type: in vitro ADME
Description: (§2) In a study using recombinant human P450 isoforms, the compound was only a weak inhibitor (IC50>10 μM) of all isoforms tested, 3A4, 2D6, 2C9, 2C19, and 1A2.

[4] = biological target: recombinant human P450 2D6 (Homo sapiens, UniProt P10635); assay: Recombinant human P450 isoform inhibition, 2D6; assay type: in vitro ADME
Description: as §2

[5] = biological target: recombinant human P450 2C9 (Homo sapiens, UniProt P11712); assay: Recombinant human P450 isoform inhibition, 2C9; assay type: in vitro ADME
Description: as §2

[6] = biological target: recombinant human P450 2C19 (Homo sapiens, UniProt P33261); assay: Recombinant human P450 isoform inhibition, 2C19; assay type: in vitro ADME
Description: as §2

Sequence of recombinant human P450 2C19 (P33261 whole entry, canonical isoform): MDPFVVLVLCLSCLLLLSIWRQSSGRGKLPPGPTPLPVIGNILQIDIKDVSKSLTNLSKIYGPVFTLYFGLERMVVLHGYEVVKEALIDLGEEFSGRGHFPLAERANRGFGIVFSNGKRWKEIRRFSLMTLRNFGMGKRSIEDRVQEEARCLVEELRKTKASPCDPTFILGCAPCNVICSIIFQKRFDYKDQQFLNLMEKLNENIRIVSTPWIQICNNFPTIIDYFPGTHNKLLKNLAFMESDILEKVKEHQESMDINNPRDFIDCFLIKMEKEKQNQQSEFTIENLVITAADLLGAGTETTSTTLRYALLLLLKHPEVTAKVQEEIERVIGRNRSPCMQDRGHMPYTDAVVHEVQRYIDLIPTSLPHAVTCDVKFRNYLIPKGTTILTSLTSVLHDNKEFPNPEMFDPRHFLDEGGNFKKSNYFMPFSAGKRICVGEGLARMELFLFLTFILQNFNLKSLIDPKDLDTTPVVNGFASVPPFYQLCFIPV
Sequence of recombinant human P450 2D6 (P10635 whole entry, canonical isoform): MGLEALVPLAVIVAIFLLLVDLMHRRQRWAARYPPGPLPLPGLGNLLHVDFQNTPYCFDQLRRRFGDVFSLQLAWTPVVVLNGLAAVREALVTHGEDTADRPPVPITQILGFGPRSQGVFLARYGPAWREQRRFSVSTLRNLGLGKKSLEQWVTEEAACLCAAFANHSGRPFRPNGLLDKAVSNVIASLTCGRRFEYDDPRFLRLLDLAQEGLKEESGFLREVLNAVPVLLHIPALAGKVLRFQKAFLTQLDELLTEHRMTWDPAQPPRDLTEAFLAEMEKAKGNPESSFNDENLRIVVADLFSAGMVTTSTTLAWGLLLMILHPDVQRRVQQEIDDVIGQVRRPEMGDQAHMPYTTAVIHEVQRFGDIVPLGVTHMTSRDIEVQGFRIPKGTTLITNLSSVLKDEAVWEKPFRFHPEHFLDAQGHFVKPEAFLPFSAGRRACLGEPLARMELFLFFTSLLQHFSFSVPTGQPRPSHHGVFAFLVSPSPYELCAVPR
Sequence of recombinant human P450 3A4 (P08684 whole entry, canonical isoform): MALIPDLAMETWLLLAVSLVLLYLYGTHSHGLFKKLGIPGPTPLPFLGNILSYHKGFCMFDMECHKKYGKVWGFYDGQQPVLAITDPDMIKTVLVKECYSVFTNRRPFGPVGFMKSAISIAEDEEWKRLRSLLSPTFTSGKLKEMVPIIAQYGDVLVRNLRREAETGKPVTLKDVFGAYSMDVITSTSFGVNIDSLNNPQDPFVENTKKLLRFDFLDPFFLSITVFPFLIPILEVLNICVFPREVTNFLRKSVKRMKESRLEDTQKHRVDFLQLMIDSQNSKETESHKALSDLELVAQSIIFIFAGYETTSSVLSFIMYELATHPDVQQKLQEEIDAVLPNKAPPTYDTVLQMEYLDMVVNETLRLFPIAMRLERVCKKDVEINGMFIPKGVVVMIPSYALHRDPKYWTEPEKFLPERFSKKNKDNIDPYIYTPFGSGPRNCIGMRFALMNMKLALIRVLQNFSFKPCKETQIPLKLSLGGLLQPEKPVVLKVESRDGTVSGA
T1 sequence (P33535 whole entry): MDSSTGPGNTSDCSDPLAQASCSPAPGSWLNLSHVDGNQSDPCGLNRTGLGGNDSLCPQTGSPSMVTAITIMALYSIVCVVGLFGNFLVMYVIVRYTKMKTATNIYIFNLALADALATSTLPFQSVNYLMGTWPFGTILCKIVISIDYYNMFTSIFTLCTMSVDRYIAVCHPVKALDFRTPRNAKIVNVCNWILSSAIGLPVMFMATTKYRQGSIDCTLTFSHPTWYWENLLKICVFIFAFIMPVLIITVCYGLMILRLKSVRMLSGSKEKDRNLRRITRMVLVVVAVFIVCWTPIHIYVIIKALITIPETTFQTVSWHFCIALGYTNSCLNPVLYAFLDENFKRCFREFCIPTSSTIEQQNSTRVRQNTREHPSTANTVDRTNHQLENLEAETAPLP
Sequence of recombinant human P450 2C9 (P11712 whole entry, canonical isoform): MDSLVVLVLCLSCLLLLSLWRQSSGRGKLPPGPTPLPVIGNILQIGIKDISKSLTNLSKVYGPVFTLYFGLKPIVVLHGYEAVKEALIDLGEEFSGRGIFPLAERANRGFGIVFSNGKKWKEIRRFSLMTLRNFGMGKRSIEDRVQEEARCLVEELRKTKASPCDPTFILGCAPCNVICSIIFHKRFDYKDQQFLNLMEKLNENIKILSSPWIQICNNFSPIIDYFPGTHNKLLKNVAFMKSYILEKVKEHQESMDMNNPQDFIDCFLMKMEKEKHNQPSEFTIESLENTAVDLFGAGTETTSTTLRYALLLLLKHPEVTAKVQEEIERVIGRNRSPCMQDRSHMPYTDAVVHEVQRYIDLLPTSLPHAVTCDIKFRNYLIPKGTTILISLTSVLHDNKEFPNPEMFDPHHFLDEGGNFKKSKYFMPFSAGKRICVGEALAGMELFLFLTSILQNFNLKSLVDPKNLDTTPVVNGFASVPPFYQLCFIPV

## CN(C)C[C@H]1CCCC[C@]1(O)c1cccc(C(N)=O)c1 (single isomer, unassigned) [Cpd 3]
Mu opioid receptor
  Ki: 0.0155 µM
Male Sprague-Dawley rats
  Antihyperalgesic effect (reversal of thermal hyperalgesia): antihyperalgesic
Male Sprague Dawley rats
  ED50: 17 mg/kg
[1]
  % remaining after 10 min: 88.2%
[2]
  % remaining after 10 min: 92.6%
[3]
  IC50: > 10 µM
[4]
  IC50: > 10 µM
[5]
  IC50: > 10 µM
[6]
  IC50: > 10 µM

Reference: patent US7745492B2, “Carboxamido opioid compounds” (Janssen Pharmaceutical, priority 2004, dated 2010)
